The source of these data is ChEMBL document CHEMBL5365419, “Identification of a Protein Arginine Methyltransferase 7 (PRMT7)/Protein Arginine Methyltransferase 9 (PRMT9) Inhibitor” (J Med Chem, 2023).

Each structure is given as a SMILES string. The source made the active and inactive calls. The calls are words filed in the database; no cut-off is given here.

The target in assay [1] is Histone-lysine N-methyltransferase ASH1L (Homo sapiens) (UniProt Q9NR48). The assay is described as follows: Inhibition of N-terminal His-tagged human recombinant ASH1L (2046 to 2330 residues) at higher concentration using oligo nucleosomes as substrate and 3H-SAM as cosubstrate incubated for 60 mins by scintillation counter analysis.
Assay [2] concerns the target Histone-lysine N-methyltransferase EZH2 (Homo sapiens) (UniProt Q15910). The assay is described as follows: Inhibition of N-terminal His-tagged human full-length recombinant EZH2 (2 to 746 residues) in PRC2 complex at higher concentration using core histone as substrate and 3H-SAM as cosubstrate incubated for 60 mins by scintillation counter analysis.
Assay [3] deals with T1, Histone-lysine N-methyltransferase SMYD3 (Homo sapiens) (UniProt Q9H7B4).
T1 sequence (whole entry): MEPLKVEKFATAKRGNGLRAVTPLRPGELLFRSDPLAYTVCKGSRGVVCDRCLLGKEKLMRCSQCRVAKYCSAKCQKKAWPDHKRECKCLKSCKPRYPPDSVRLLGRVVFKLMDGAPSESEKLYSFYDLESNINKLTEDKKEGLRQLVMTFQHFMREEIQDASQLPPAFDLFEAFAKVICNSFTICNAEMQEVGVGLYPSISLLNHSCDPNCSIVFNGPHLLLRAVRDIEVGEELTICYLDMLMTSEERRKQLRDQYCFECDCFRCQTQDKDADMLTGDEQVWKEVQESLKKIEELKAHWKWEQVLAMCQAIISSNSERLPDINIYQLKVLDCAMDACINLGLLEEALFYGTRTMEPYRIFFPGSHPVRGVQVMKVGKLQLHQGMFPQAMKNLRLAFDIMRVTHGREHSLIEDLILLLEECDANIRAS
Nature of the assay: Inhibition of C-terminal His/GST-tagged human recombinant SMYD3 (2 to 428 residues) at higher concentration using 3H-SAM as substrate incubated for 60 mins by scintillation counter analysis.

For assay [4], the target named is Histone-lysine N-methyltransferase SUV39H2 (Homo sapiens) (UniProt Q9H5I1). The assay is described as follows: Inhibition of N-terminal/C-terminal His/GST-tagged human recombinant SUV39H2 (46 to 410 residues) at higher concentration using H3 histone as substrate and 3H-SAM as cosubstrate incubated for 60 mins by scintillation counter analysis.
Assay [5] concerns the target Histone-lysine N-methyltransferase, H3 lysine-79 specific (Homo sapiens) (UniProt Q8TEK3). The assay is described as follows: Inhibition of N-terminal/C-terminal His/GST-tagged human recombinant DOT1L (1 to 416 residues) at 10 uM using oligo nucleosome as substrate and 3H-SAM as cosubstrate incubated for 60 mins by scintillation counter analysis.
The target of assay [6] is T2, Protein arginine N-methyltransferase 7 (Homo sapiens) (UniProt Q9NVM4).
T2 sequence (whole entry): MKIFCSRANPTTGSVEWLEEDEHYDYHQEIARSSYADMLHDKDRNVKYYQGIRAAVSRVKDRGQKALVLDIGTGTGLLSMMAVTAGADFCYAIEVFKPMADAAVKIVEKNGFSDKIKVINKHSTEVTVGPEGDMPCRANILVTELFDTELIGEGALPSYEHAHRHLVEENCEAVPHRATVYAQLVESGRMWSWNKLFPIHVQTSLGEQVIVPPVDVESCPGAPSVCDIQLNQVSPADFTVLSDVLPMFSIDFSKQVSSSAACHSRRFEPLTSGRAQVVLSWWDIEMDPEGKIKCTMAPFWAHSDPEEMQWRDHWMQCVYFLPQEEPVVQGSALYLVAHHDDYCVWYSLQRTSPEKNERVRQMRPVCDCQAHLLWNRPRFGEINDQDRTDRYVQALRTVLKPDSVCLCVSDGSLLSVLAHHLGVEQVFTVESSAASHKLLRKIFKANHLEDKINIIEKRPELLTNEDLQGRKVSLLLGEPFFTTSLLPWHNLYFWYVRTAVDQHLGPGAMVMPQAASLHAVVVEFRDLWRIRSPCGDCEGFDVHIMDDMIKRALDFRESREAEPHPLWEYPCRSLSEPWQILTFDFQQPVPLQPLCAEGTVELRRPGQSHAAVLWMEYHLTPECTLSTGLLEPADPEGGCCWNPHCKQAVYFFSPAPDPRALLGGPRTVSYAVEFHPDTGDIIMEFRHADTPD
Nature of the assay: Inhibition of PRMT7 catalysed methylation of HSP70 at R469 residue in HEK293T cells assessed as increase in ratio of abundance of unmethylated over methylated peptides measured after 24 to 48 hrs by UHPLC- MS/MS analysis. In kind it is cell-based. The settings on record: dose 10-50 µM, time 24-48 hrs.

Histone-lysine N-methyltransferase SUV39H2 (Homo sapiens), sequence (Q9H5I1 whole entry, the tested form may be a part): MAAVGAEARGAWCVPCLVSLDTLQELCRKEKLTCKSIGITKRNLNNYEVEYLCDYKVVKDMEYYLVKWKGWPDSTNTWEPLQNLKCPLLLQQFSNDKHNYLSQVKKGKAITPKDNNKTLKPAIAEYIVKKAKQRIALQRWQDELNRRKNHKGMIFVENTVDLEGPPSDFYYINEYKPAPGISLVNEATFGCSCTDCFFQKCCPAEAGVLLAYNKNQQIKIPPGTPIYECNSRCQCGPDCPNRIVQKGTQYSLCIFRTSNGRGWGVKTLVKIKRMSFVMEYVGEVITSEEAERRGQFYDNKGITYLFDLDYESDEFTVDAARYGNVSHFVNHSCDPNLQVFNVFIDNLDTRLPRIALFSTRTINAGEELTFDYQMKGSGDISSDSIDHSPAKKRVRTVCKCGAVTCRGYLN
Histone-lysine N-methyltransferase EZH2 (Homo sapiens), sequence (Q15910 whole entry, looked up, the tested form may be a part): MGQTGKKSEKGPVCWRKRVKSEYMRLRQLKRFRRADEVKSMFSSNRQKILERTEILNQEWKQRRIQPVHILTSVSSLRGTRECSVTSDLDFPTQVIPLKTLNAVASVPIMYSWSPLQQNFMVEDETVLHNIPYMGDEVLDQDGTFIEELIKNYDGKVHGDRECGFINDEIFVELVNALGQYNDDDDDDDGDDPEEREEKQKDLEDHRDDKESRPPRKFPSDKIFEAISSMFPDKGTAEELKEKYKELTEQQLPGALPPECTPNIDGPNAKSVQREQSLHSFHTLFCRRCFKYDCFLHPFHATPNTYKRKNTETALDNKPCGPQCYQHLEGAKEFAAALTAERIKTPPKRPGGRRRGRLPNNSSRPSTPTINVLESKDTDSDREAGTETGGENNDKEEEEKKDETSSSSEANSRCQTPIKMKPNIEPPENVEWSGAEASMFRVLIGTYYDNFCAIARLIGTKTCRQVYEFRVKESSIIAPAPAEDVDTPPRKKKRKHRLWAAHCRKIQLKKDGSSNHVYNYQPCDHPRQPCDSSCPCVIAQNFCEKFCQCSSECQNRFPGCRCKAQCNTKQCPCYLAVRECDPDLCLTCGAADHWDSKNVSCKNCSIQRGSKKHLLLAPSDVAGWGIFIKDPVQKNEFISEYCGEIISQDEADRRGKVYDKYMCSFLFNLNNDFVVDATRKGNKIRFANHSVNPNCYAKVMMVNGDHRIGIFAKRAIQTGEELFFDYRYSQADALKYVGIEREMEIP
Histone-lysine N-methyltransferase, H3 lysine-79 specific (Homo sapiens), sequence (Q8TEK3 whole entry, looked up, the tested form may be a part): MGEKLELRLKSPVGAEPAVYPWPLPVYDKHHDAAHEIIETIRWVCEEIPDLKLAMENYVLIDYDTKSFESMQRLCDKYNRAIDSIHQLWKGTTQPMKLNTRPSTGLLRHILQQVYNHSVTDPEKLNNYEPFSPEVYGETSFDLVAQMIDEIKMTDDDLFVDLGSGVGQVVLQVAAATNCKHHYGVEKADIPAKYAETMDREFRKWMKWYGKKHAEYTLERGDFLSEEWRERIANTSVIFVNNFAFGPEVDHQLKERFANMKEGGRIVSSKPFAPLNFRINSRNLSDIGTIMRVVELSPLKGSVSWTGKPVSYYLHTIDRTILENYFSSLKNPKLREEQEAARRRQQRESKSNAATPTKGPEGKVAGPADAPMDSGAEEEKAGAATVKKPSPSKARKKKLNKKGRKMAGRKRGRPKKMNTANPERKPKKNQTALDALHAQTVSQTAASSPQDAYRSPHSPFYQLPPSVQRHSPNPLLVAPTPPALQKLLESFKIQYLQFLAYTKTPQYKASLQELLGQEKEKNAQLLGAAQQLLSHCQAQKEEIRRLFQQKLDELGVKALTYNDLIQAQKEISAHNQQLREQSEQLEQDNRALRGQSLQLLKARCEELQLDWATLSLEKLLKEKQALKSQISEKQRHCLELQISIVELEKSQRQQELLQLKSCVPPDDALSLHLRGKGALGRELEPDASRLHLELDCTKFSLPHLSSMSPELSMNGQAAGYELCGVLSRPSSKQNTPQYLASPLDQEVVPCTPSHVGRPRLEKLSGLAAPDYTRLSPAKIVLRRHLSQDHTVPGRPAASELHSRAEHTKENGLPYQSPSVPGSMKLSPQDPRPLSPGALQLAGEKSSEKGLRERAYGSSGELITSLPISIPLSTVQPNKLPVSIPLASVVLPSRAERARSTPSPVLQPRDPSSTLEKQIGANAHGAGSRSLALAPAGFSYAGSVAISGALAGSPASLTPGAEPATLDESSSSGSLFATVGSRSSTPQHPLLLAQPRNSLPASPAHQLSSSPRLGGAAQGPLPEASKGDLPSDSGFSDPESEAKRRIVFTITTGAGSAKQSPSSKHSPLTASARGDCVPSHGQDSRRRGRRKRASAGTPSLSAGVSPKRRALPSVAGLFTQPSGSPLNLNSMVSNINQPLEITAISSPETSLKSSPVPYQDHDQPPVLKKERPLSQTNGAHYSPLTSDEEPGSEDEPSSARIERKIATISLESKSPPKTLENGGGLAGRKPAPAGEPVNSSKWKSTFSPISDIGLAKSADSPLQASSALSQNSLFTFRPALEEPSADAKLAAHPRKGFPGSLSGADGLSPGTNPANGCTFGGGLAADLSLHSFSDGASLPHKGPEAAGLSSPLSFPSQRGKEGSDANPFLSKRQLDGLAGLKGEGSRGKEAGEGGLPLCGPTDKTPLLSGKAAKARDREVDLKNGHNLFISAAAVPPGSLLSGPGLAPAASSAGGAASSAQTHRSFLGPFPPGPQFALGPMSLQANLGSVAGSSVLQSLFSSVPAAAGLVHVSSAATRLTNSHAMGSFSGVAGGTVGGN

Regarding `COC(=O)c1cc(O)c2cc(NC(=O)NCCCNC(=N)NC[C@H]3O[C@@H](n4cnc5c(N)ncnc54)[C@H](O)[C@@H]3O)cc(C(F)(F)F)c2c1`, the inhibition entry in assay [1], in assay [2], in assay [3] and in assay [4] was “inactive” each time. In addition, in assay [5], the inhibition entry was “Active”. In addition, the inhibition entry in assay [6] was “Dose-Dependent Effect”.
